In publication PMC6359039, “Pharmacokinetics, Tissue Distribution, Plasma Protein Binding Studies of 10-Dehydroxyl-12-Demethoxy-Conophylline, a Novel Anti-Tumor Candidate, in Rats” (Molecules, 2019):
Like-named read-outs stand apart in the source and are kept apart here.

Columns and labels:
[1] = Plasma pharmacokinetics in rats after i.v. and i.g. dosing (UPLC-FLR); format: in vivo, Sprague Dawley rats; design: CL: unit not given here; conditions: rat; for MRT: Sprague-Dawley; for pharmacokinetic model fit: plasma concentration–time data, DAS 2.0
Description: Sprague Dawley rats (half male and female) with a body mass 180–220 g were provided by the Laboratory Animal Center of Medical University of Anhui (Hefei, China), Certificate number: SCXK(wan) 2015-002. Animals were housed under controlled conditions (temperature 22 ± 2 °C, humidity 50% ± 5%, 12 h dark/light cycle) with standardized diet and acclimatized for 7 days, prior to the experiments. All protocols and care of the rats were performed in strict compliance with the Guidelines for the Use of Laboratory Animals (National Research Council) and authorized by the Animal Care and Use Committee of Anhui University of Chinese Medicine.
Chromatographic separation was performed using a UPLC system (Waters ACQUITY-CLASS. US) with an analytical column Kinetex (C18, 1.7 μm, 2.1 mm × 100 mm; Phenomenex; California; CA, USA) at 25 °C. Water and methanol (75:25) were used as the isocratic elution, running at a flow rate of 0.2 mL/min. The detector was used with fluorescence (FLR) detection with a fluorescence excitation wavelength of 330 nm and a fluorescence emission wavelength of 439 nm.
The rat intravenous doses were determined as 4, 8, and 12 mg/kg, and the intragastric administration dose was 20 mg/kg. These were selected to investigate whether the pharmacokinetics of the drug was linear over the range of doses used. In all, 18 (SD) rats (half male and female) were randomly divided into three groups, namely, high-, medium- and low-dose groups. The rats fasted 12 h be before the administration of 10-dehydroxyl-12-demethoxy-conophylline but with free access to water. 10-dehydroxyl-12-demethoxy-conophylline was dissolved in normal saline and added with 5% ethanol. Amounts of 4, 8, and 12 mg/kg (0.5 mL/100 g) were injected into the tail vein of the rat, and 0.3 mL of blood was taken from the eyelid before administration (0 min) and 2, 5, 15, 30, 60, 90, 120, 180, 240, and 300 min after intravenous administration. Another 6 rats (half male and female) were administered an intragastrical (i.g.) dose of 20 mg/kg. Blood samples (0.3 mL) were collected by retro-orbital bleeding into heparinized 1.5mL tubes before administration (0 min) and 15, 30, 60, 90, 120, 240, 480, and 600 min after intragastric administration. Immediately after collection, the blood samples were centrifuged at 3500 rpm for 10 min to obtain plasma, and originating supernatants were also stored at −70 °C until analysis.
Plasma samples (90 μL) were spiked with 10 μL internal standard (100 ng/mL) and extracted with 300 μL of methanol by vortexing for 10 min. The plasma and aqueous phases were separated by centrifugation at 14,000 rpm for 10 min. The supernatants were transferred to another tube and evaporated to dryness at 50 °C. The residue was dissolved in 100 μL methanol and vortexed. A 2 μL aliquot of the solution was injected into the UPLC system for analysis.
The pharmacokinetic parameters were calculated using the pharmacokinetic software DAS 2.0 (Chinese Pharmacological Association, Beijing, China) by non-compartmental and compartmental analysis method. The elimination half-life (t1/2) was determined by linear regression of the terminal portion (last the points) of the plasma concentration–time curve. The area under the plasma concentration–time curve from zero to the last measurable plasma concentration point (AUC0-t) was calculated using the linear trapezoidal method. Extrapolation from time zero to infinity (AUC0-∞) was calculated as follows:AUC0-∞ = AUC0-t + Ct/ke,(2) where Ct is the last measurable plasma concentration and ke is the terminal elimination rate constant. […]

[2] = system: HL-60; design: method as in PMID 29772302; conditions: cited from earlier work
[3] = system: SMMC-7721; design: method as in PMID 29772302; conditions: cited from earlier work
[4] = both sexes, Sprague Dawley, plasma, iv, 4 mg/kg i.v., mean ± SD, n = 6
[5] = both sexes, Sprague Dawley, plasma, iv, 8 mg/kg i.v., mean ± SD, n = 6
[6] = both sexes, Sprague Dawley, plasma, iv, 12 mg/kg i.v., mean ± SD, n = 6
[7] = both sexes, Sprague Dawley, plasma, po, 20 mg/kg i.g., mean ± SD, n = 6
[8] = 12 mg/kg i.v., mean ± SD, n = 6
[9] = 20 mg/kg i.g., mean ± SD, n = 6

For CC[C@@]12CC(C(=O)OC)=C3Nc4cc5c(cc4[C@@]34CCN(C[C@H]3O[C@H]31)[C@@H]24)[C@@H]1C(O5)[C@@H](O)[C@@]2(CC)CC(C(=O)OC)=C3Nc4cc(OC)ccc4[C@@]34CCN1[C@@H]24 (stereo partly shown) [10-dehydroxyl-12-demethoxy-conophylline, 10-Dehydroxyl-12-demethoxy-conophylline], the AUC(0-inf) ([1]; both sexes, Sprague Dawley, plasma, iv, 4 mg/kg i.v.) was 1140 ng·h/mL, the AUC(0-t) [1, 4] was 988 ng·h/mL and the clearance [1, 4] was 41 ± 70 mL/min/kg. The AUC(0-inf) [1, 5] was 2190 ng·h/mL, the AUC(0-t) [1, 5] was 2150 ng·h/mL and the clearance [1, 5] was 39 ± 120 mL/min/kg. The AUC(0-inf) ([1]; both sexes, Sprague Dawley, plasma, iv, 12 mg/kg i.v.) was 5090 ng·h/mL, the AUC(0-t) [1, 6] was 3910 ng·h/mL and the clearance [1, 6] was 41 ± 50 mL/min/kg. For the same compound, the bioavailability ([1]; both sexes, Sprague Dawley, plasma, oral, 20 mg/kg i.g. versus i.v., read-out: absolute oral bioavailability) was 15.8%, the AUC(0-inf) [1, 7] was 1240 ng·h/mL and the AUC(0-t) [1, 7] was 867 ng·h/mL. For the same compound, the Tmax ([1]; both sexes, Sprague Dawley, plasma, iv, 4 mg/kg, 4 mg/kg i.v., mean ± SD, n = 6) was 0.0333 h, the half-life ([1]; both sexes, Sprague Dawley, plasma, iv, 4 mg/kg, 4 mg/kg i.v., mean ± SD, n = 6, read-out: t1/2β) was 1.14 ± 0.0548 h and the Tmax ([1]; both sexes, Sprague Dawley, plasma, iv, 8 mg/kg, 8 mg/kg i.v., mean ± SD, n = 6) was 0.0333 h. For the same compound, the half-life ([1]; both sexes, Sprague Dawley, plasma, iv, 8 mg/kg, 8 mg/kg i.v., mean ± SD, n = 6, read-out: t1/2β) was 1.11 ± 0.0759 h, the Tmax ([1]; both sexes, Sprague Dawley, plasma, iv, 12 mg/kg, 12 mg/kg i.v., mean ± SD, n = 6) was 0.0333 h and the half-life ([1]; both sexes, Sprague Dawley, plasma, iv, 12 mg/kg, 12 mg/kg i.v., mean ± SD, n = 6, read-out: t1/2β) was 1.16 ± 0.0721 h. The half-life ([1]; both sexes, Sprague Dawley, plasma, iv, 12 mg/kg, i.v. dosing at 4, 8 and 12 mg/kg, read-out: half-life t1/2α of intravenous administration) was ~0.117 h, the half-life ([1]; both sexes, Sprague Dawley, plasma, iv, 12 mg/kg, i.v. dosing at 4, 8 and 12 mg/kg, read-out: t1/2β of intravenous administration) was ~1.15 h and the Tmax ([1]; both sexes, Sprague Dawley, plasma, po, 20 mg/kg, 20 mg/kg i.g., mean ± SD, n = 6) was ~1.5 h. For the same compound, the half-life ([1]; both sexes, Sprague Dawley, plasma, po, 20 mg/kg, 20 mg/kg i.g., mean ± SD, n = 6, read-out: t1/2β) was 1.17 ± 0.0447 h, the MRT ([1]; both sexes, plasma, iv, 4 mg/kg i.v., mean ± SD, n = 6) was 1.52 h and the MRT ([1]; both sexes, plasma, iv, 8 mg/kg i.v., mean ± SD, n = 6) was 1.42 h. For the same compound, the MRT ([1]; both sexes, plasma, iv, 12 mg/kg i.v., mean ± SD, n = 6) was 1.36 h, the MRT ([1]; both sexes, plasma, po, 20 mg/kg i.g., mean ± SD, n = 6) was 4.28 h and the “AUC0–∞” value ([1]; 4 mg/kg i.v., mean ± SD, n = 6) was 68.478 ± 8.167 µg·min/mL. The V ([1]; 4 mg/kg i.v., mean ± SD, n = 6) was 2.096 ± 0.0465 L/kg, the t1/2α ([1]; 4 mg/kg i.v., mean ± SD, n = 6) was 0.1164 ± 0.03832 h and the V ([1]; 8 mg/kg i.v., mean ± SD, n = 6) was 1.906 ± 0.012 L/kg. For the same compound, the t1/2α ([1]; 8 mg/kg i.v., mean ± SD, n = 6) was 0.1185 ± 0.0318 h, the “AUC0–∞” value [1, 8] was 305.616 ± 17.432 µg·min/mL and the V [1, 8] was 2.014 ± 0.019 L/kg. It also gave a t1/2α [1, 8] of 0.1174 ± 0.03417 h, a CL [1, 9] of 0.046 ± 0.013 and a V [1, 9] of 4.881 ± 2.390 L/kg. For the same compound, the t1/2α [1, 9] was 0.87358 ± 0.032 h, the “t1/2β of intravenous administration” value ([1]; i.v. dosing at 4, 8 and 12 mg/kg) was “about 68 min” and the pharmacokinetic model fit [1] was “fit to a two-room model”. The pharmacokinetic model fit ([1]; listed as 10-dehydroxyl-12-demethoxyconophylline) was “consistent with a two-compartment pharmacokinetic model”, the “linear correlation between AUC0→t and dose (r)” value ([1]; single i.v. dose 4, 8 and 12 mg/kg) was 0.9821 and the “inhibitory activity on HL-60 tumor cell line” value [2] was “significant inhibitory activity”. For the same compound, the “inhibitory activity on SMMC-7721 tumor cell line” value [3] was “significant inhibitory activity”.
